According to patent publication US12216122B2, “Compositions and methods relating to detection, inhibition, and imaging of indoleamine 2,3-dioxygenase 1 (IDO1)” (Regeneron Pharmaceuticals, Inc., priority 2019, dated 2025):
Read-outs that look alike come from different tables or passages of the source. Numbered stars: 1 amine (or outer) side, 2 acyl side, 3 side chain; on linkers, the order of the positions; unused ones are H or OH. Bridge positions count the residues as written; N and C are the ends. Square brackets hold non-standard residues; d marks the D form. Triazole bridges read from a SMILES are 1,4-linked. Ends that are not written are not given here. Peptide text beside a SMILES is read from it. * marks the point of attachment. NH(CH2CH2O)5CH2CO = O=C(COCCOCCOCCOCCOCCN[*:1])[*:2]; X2 = O=C(CCCCCSc1nonc1/C(=N/O)Nc1ccc(F)c(Br)c1)*; X1 = O=C(CSc1nonc1/C(=N/O)Nc1ccc(F)c(Br)c1)*; Trp(1-Me) = Cn1cc(C[C@H](N)C(=O)O)c2ccccc21; PEG8 = NCCOCCOCCOCCOCCOCCOCCOCCOCCC(=O)O; Lys(N3) = [N-]=[N+]=NCCCC[C@H](N)C(=O)O; Phe(4-F) = N[C@@H](Cc1ccc(F)cc1)C(=O)O; PEG6 = NCCOCCOCCOCCOCCOCCOCCC(=O)O; dNMeV = CN[C@@H](C(=O)O)C(C)C; Pra = C#CC[C@H](N)C(=O)O

Key:
[1] = molecular target: T1, IDO1 in IFNγ stimulated HeLa cells (Homo sapiens, UniProt P14902); assay: IDO1 inhibition assay in HeLa cells stimulated with IFNγ; type: cell-based; conditions: for inhibition at 8 µM: HeLa
T1 construct: endogenous in cells; host or cells: HeLa cells stimulated with IFNγ
Method: Lead compounds prioritized in the recombinant IDO1 inhibition assay were advanced to a cellular IDO1 inhibition assay.
Protocol: HeLa cells were trypsinized and diluted to a density of 2×10^5 cells/mL in cell culture medium (DMEM+10% Fetal Bovine Serum (FBS)+1% Penicillin/Streptomycin). Sterile L-tryptophan was added to the cells at a final concentration of 300 μM. IFNγ at a final concentration of 100 ng/mL was added to HeLa cells to stimulate IDO1 expression. Unstimulated HeLa cells in the absence of IFNγ were used for background subtraction. HeLa cells with or without IFNγ were plated in 96-well Greiner black assay plates at a density of 22,000 cells/well. […] 8 μL of each compound dilution were then dispensed into the Greiner black 96-well assay plate(s) containing HeLa cells in triplicate, yielding final assay compound concentrations of 8 μM serially diluted to 1.27 nM. The plates were incubated at 37° C. with 5% CO2. After 48 hours, 24 μL of 0.5 M methyl isonipecotate in DMSO were added into each well and the plates were sealed and incubated at 37° C. with 5% CO2 overnight. The resulting fluorescence was measured in a BioTek Synergy H1 plate reader with a 400 nm excitation filter and a 510 nm emission filter. The fluorescence intensity of each well was corrected for the background observed in wells with non-IFNγ-treated cells and was expressed as a fraction of the intensity observed in wells of IFNγ-treated cells with vehicle only.

HeLa cells = assay: Cellular internalization of fluorescent IDO1 ligands (flow cytometry); type: cell-based; conditions: Cy5 or FITC label, flow cytometry
Method: Internalization of fluorescently labeled peptides (using Cy5 or FITC) was measured by concentration dependent flow cytometry of unstimulated HeLa cells incubated for one hour with the peptide. […] Internalization was also testing using a cellular inhibition assay, which occurs over 48 hours (rather than the one hour for the flow cytometry assay). Internalized FITC-wyvay (SEQ ID NO:2) at 48 hours was compared to one hour in both unstimulated and stimulated HeLa cells (Table 13). Cell penetration of FITC-wyvay (SEQ ID NO:2) increases with time; more internalized FITC-wyvay (SEQ ID NO:2) can be detected at 48 hours compared to one hour. After one hour, no difference in intracellular staining of FITC-wyvay (SEQ ID NO:2) is observed in unstimulated versus stimulated cells. At 48 hours, there is a slight increase in intracellular FITC-wyvay (SEQ ID NO:2) in stimulated compared to unstimulated cells.
Protocol: HeLa cells were cultured to confluence (˜500,000 cells) in 6-well plates in cell culture medium (DMEM+10% Fetal Bovine Serum (FBS)+1% Penicillin/Streptomycin) or in cell culture medium containing 100 ng/mL IFNγ to stimulate IDO1 expression. The cells were treated with 2 μM or 8 μM macrocyclic IDO1 ligand labeled with either Cy5 or FITC for either 1 hour, 24 hours, or 48 hours as indicated. After treatment, the ligands were aspirated and the cells were washed twice with 1× Phosphate Buffered Saline (PBS). The cells were then harvested by treatment with 0.05% Trypsin-1×EDTA for 5 min at 37° C. Trypsin was quenched by the addition of PBS+2% FBS. The cells in suspension were washed twice in PBS+2% FBS, then resuspended in 500 μL PBS+2% FBS and analyzed for Cy5 or FITC fluorescence using a BD LSR Fortessa X-20 flow cytometer or/and ImageStream X Mark II imaging flow cytometer. Flow Cytometry Standard (fcs) data files were analyzed using FlowJo Software version 10.

recombinant human IDO1 = molecular target: T2, recombinant human IDO1 (Homo sapiens, UniProt P14902); assay: IDO1 Fluorogenic Inhibitor Screening Assay (enzyme inhibition); type: biochemical
T2 construct: purchased BPS Biosciences 72037
Method: The IDO1 Fluorogenic Inhibitor Screening Assay Kit (72037, BPS Biosciences) was used to measure the enzyme inhibition of human IDO1 in the presence of macrocyclic peptide ligands. IDO1 catalyzes the conversion of the essential amino acid L-tryptophan (L-Trp) to N-formylkynurenine (NFK). In the assay, the test inhibitor and enzyme were added to a sample containing L-Trp substrate. After incubation for 1 h at room temperature, 20 μL Fluorescence Solution was added and incubated at 37° C. for 4 h to produce a fluorescent product. Activity was measured by reading sample fluorescence at λ=510 nm following excitation of the reaction product at λ=400 nm.

[2] = molecular target: T3, His-tagged IDO1 human recombinant protein (Homo sapiens, UniProt P14902); assay: IDO1 ELISA (Affinity Assay): sandwich ELISA, biotinylated ligand immobilized on NEUTRAVIDIN plate; type: binding; conditions: binding analysis of VHL-linked Epitope 2 ligand; read-out: EC50
T3 construct: purchased BPS Biosciences 71182
Method: Protocol: A black 96-well NEUTRAVIDIN® Coated High Binding Capacity plate (15510, Pierce) was coated with 2 μM biotinylated macrocyclic peptide ligand in TBS (25 mM Tris-HCl, 150 mM NaCl, pH 7.6) for 2 h at room temperature. The plate was aspirated and then washed with Wash Buffer (0.05% (v/v) TWEEN® 20 in PBS, 6×). His-tagged IDO1 human recombinant protein (71182, BPS Biosciences) was serially diluted in Wash Buffer (from 200 to 0 nM) and incubated in the designated microwells for 1 h at room temperature. Microwells were aspirated and subsequently washed with Wash Buffer (11×). To detect the bound IDO1 protein, Alkaline Phosphatase (AP)-conjugated Anti-6×HIS TAG® antibody [HIS-1] (ab49746, Abcam) was prepared at 1:10,000 dilution and added to the microwells for 1 h at room temperature. The plate was aspirated and washed with Wash Buffer (5×). ATTOPHOS® AP Fluorescent Substrate System (S1000, Promega) was employed to develop the microwells. Using an excitation wavelength of 430 nm, fluorescent emission at 535 nm was recorded by Beckman Coulter DTX880 photometer. Titration curves were fit using a four-parameter regression curve fitting program to determine EC50 values.
For these assays, a dilution series of His-tagged IDO1 human recombinant protein was captured using the macrocyclic peptide ligands immobilized on a NEUTRAVIDIN®-coated plate. […] The sequences of the peptide ligands are listed in Table 1, where D-amino acids are denoted in lowercase, Me-Trp=1-methyl-L-tryptophan, and F-Phe=4-fluoro-L-phenylalanine. Chemical structures are shown below Table 1.
The D-alanine substituted, biotin-PEG3-modified macrocycles were tested in the IDO1 ELISA (Affinity assay). For these assays, a dilution series of His-tagged IDO1 human recombinant protein was captured using macrocycles immobilized on a NEUTRAVIDIN®-coated plate.

[3] = read-out: % inhibition at 8 μM, HeLa, Table 17
[4] = Table 18, read-out: Inhibition HeLa IC50
[5] = Table 19, read-out: Inhibition HeLa cells IC50
[6] = Table 18, read-out: Inhibition Recombinant IDO1 IC50
[7] = Table 19, read-out: Inhibition Human rIDO1 IC50
[8] = PEG linker length series, wyry, read-out: IC50
[9] = Table 17, read-out: Inhibition Recombinant IDO1 IC50
[10] = N-methylated heterobiligands, PEG6 linker, read-out: IC50
[11] = PEG linker length series, wyvay, read-out: IC50
[12] = Table 15, read-out: Inhibition Recombinant IDO1 IC50

T2 sequence (P14902 whole entry): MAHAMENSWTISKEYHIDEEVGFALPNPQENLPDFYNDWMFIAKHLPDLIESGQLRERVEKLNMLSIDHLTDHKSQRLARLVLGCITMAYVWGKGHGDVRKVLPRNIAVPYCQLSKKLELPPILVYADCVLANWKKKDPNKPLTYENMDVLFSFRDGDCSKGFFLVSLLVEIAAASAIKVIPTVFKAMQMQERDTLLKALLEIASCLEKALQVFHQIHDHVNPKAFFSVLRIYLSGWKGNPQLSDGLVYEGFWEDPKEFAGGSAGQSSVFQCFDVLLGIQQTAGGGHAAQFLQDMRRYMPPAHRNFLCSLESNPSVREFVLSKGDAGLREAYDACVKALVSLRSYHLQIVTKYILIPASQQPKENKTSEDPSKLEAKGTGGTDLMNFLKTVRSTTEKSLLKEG
T1 sequence (P14902 whole entry): as above
T3 sequence (P14902 whole entry): as above

Compound: d-Hex-Inh-PEG5-wyvay: heterobiligand with linker modified to increase lipophilicity, PEG5 ([dW][dY][dV][dA][dY]; also: d-Hex-inhibitor via PEG5 linker)
- Cellular IDO1 inhibition, in words [1]: good inhibition/cell penetration

Compound: wy(N-Me-v)ay: wyvay peptide ligand with N-methylated valine (third N—H) ([Pra][dW][dY][dNMeV][dA][dY]; triazole N-C; not fully specified (C-terminus); printed as wy(N-Me-v)ay)
- Internalization of fluorescently labeled peptide, in words (HeLa cells): much higher than wyvay

Compound: CC(C)[C@H]1NC(=O)[C@@H](Cc2ccc(O)cc2)NC(=O)[C@@H](Cc2c[nH]c3ccccc23)NC(=O)[C@@H](NC(=O)CCOCCOCCOCCOCCOCCOCCOCCOCCNC(=O)CSc2nonc2/C(=N/O)Nc2ccc(F)c(Br)c2)Cc2cn(nn2)CCCC[C@@H](C(N)=O)NC(=O)[C@@H](Cc2ccc(O)cc2)NC(=O)[C@@H](C)NC1=O [Deprotected-Inh-PEG8-wyvay] ({X1-PEG8}-[Pra][dW][dY][dV][dA][dY][Lys(N3)]-NH2; triazole 1-7)
- inhibition at 8 µM [1, 3]: 77.3%

Compound: d-Hex-Inh-PEG6-wyvay: heterobiligand with linker modified to increase lipophilicity, PEG6 ([dW][dY][dV][dA][dY]; also: d-Hex-inhibitor via PEG6 linker)
- Cellular IDO1 inhibition, in words [1]: only showed inhibition at higher concentrations

Compound: Cy5-nlf(Me-Trp)(F-Phe): Cy5 labeled Epitope 2 macrocycle nlf(Me-Trp)(F-Phe) ([dN][dL][dF][Trp(1-Me)][Phe(4-F)]; triazole (positions not given here); not fully specified (N-terminus, C-terminus, bridges); printed as Cy5-nlf(Me-Trp)(F-Phe); also: Cy5 label, macrocycle, closure not given here)
- Internalization of fluorescently labeled peptide, in words (HeLa cells): detected by flow cytometry and imaging

Compound: O=C(O)CCCCCSc1nonc1/C(=N/O)Nc1ccc(F)c(Br)c1 [Inh2]
- IC50 [1, 4]: 0.997 µM
- IC50 [1, 5]: 0.997 µM
- IC50 (recombinant human IDO1; [6]): 343 nM
- IC50 (recombinant human IDO1; [7]): 343 nM

Compound: CC(C)[C@H]1NC(=O)[C@@H](Cc2ccc(O)cc2)NC(=O)[C@@H](Cc2c[nH]c3ccccc23)NC(=O)[C@@H](NC(=O)COCCOCCOCCOCCOCCNC(=O)CCCCCSc2nonc2/C(=N/O)Nc2ccc(F)c(Br)c2)Cc2cn(nn2)CCCC[C@@H](C(N)=O)NC(=O)[C@@H](Cc2ccc(O)cc2)NC(=O)[C@@H](C)NC1=O [Inh2-PEG5-wyvay] (X2-[NH(CH2CH2O)5CH2CO][Pra][dW][dY][dV][dA][dY][Lys(N3)]-NH2; triazole 2-8)
- IC50 [1, 4]: 0.221 µM
- IC50 [1, 5]: 0.221 µM
- IC50 (recombinant human IDO1; [6]): 539 nM
- IC50 (recombinant human IDO1; [7]): 539 nM

Compound: N=C(N)NCCC[C@H]1NC(=O)[C@@H](Cc2ccc(O)cc2)NC(=O)[C@@H](Cc2c[nH]c3ccccc23)NC(=O)[C@@H](NC(=O)CCOCCOCCOCCOCCOCCOCCNC(=O)CSc2nonc2/C(=N/O)Nc2ccc(F)c(Br)c2)Cc2cn(nn2)CCCC[C@@H](C(N)=O)NC(=O)[C@@H](Cc2ccc(O)cc2)NC1=O [Inh-PEG6-wyry] ({X1-PEG6}-[Pra][dW][dY][dR][dY][Lys(N3)]-NH2; triazole 1-6)
- inhibition at 8 µM [1, 3]: 47.8%
- Inhibition HeLa IC50 nM ([1]; Table 17): no curve fit
- IDO1 inhibition potency relative to the small molecule (Inh) alone, in words (recombinant human IDO1): more than three times as potent as Inh alone
- IC50 (recombinant human IDO1; [8]): 338 nM
- IC50 (recombinant human IDO1; [9]): 338 nM

Compound: O=C(O)CSc1nonc1/C(=N/O)Nc1ccc(F)c(Br)c1 [Inh]
- EC50 [2]: > 1000 nM
- inhibition at 8 µM [1, 3]: 99.6%
- IC50 ([1]; Table 15, read-out: Inhibition HeLa cells IC50): 0.125 µM
- IC50 ([1]; Table 17, read-out: Inhibition HeLa IC50): 0.244 µM
- IC50 [1, 4]: 0.406 µM
- IC50 [1, 5]: 0.406 µM
- IC50 (recombinant human IDO1; [10]): 928 nM
- IC50 (recombinant human IDO1; [8]): 1090 nM
- IC50 (recombinant human IDO1; [11]): 1050 nM
- IC50 (recombinant human IDO1; [12]): 928 nM
- IC50 (recombinant human IDO1; [9]): 1090 nM
- IC50 (recombinant human IDO1; [6]): 1090 nM
- IC50 (recombinant human IDO1; [7]): 1050 nM
- IC50 (recombinant human IDO1; effect of linker and of protection of the inhibitor, read-out: IC50): 616 nM
- IC50 (recombinant human IDO1; linker composition series, read-out: IC50): 693 nM

Compound: CC(C)[C@H]1NC(=O)[C@@H](Cc2ccc(O)cc2)NC(=O)[C@@H](Cc2c[nH]c3ccccc23)NC(=O)[C@@H](NC(=O)CCOCCOCCOCCOCCOCCOCCNC(=O)CSc2nonc2/C(=N/O)Nc2ccc(F)c(Br)c2)Cc2cn(nn2)CCCC[C@@H](C(N)=O)NC(=O)[C@@H](Cc2ccc(O)cc2)NC(=O)[C@@H](C)NC1=O [Inh-PEG6-wyvay] ({X1-PEG6}-[Pra][dW][dY][dV][dA][dY][Lys(N3)]-NH2; triazole 1-7)
- inhibition at 8 µM ([1]; read-out: % inhibition at 8 μM, HeLa cells, Table 19): 36.1%
- inhibition at 8 µM [1, 3]: 36.1%
- IC50 ([1]; Table 17, cells print μM, read-out: Inhibition HeLa IC50): 35.7 µM
- IC50 [1, 5]: 35.7 µM
- IC50 (recombinant human IDO1; [10]): 44 nM
- IC50 (recombinant human IDO1; [11]): 265 nM
- IC50 (recombinant human IDO1; [12]): 44 nM
- IC50 (recombinant human IDO1; [7]): 265 nM

Compound: d-Hex-Inh-PEG4-wyvay: heterobiligand with linker modified to increase lipophilicity, PEG4 ([dW][dY][dV][dA][dY]; also: d-Hex-inhibitor via PEG4 linker)
- Cellular IDO1 inhibition, in words [1]: only showed inhibition at higher concentrations
